Test results from patent US9062078B2, “Substituted 7-azabicyles and their use as orexin receptor modulators” (priority 2013, dated 2015).
Read-outs that look alike come from different tables or passages of the source.

Key:
rat orexin 1 receptor = rat orexin 1 receptor (Rattus norvegicus, UniProt P56718); experiment: Rat orexin 1 receptor radioligand binding (competitive, [3H]-SB674042, HEK293 cell preparations)
human orexin 2 receptor = human orexin 2 receptor (Homo sapiens (Human), UniProt O43614); experiment: Human orexin 2 receptor radioligand binding (competitive, [3H]-EMPA, HEK293 cell preparations)
Sequence of human orexin 2 receptor (O43614 whole entry): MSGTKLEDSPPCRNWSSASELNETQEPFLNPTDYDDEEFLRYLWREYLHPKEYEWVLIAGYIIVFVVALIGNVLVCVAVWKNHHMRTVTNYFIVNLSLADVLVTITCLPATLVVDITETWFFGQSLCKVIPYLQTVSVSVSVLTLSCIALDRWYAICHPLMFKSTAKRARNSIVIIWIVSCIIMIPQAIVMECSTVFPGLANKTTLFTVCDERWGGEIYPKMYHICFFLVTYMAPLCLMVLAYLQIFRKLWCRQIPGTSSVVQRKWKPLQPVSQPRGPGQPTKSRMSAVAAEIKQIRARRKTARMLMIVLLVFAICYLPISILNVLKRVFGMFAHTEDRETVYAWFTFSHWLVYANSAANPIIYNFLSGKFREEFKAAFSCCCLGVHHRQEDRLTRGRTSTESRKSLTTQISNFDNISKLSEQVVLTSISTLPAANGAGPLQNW

[1] = human orexin 2 receptor, [3H]-EMPA competition binding, read-out: hOX2 Ki (nm)
[2] = rat orexin 1 receptor, [3H]-SB674042 competition binding, read-out: rOX1 Ki (nm)

Row | Structure (SMILES) | Ki (rat orexin 1 receptor; rOX1 Ki (nm)) [nM] | Ki (human orexin 2 receptor; [1]) [nM] | Ki (rat orexin 1 receptor; [2]) [nM] | Ki (human orexin 2 receptor; hOX2 Ki (nm)) [nM]
1 | CCOc1ccc(C)nc1C(=O)N1C2CCC1C(Nc1ccc(C(F)(F)F)cn1)C2 (racemic) [Example 194, (±)-(3-ethoxy-6-methylpyridin-2-yl)(2-(5-(trifluoromethyl)pyridin-2-yl)amino)-7-azabicyclo[2.2.1]heptan-7-yl)methanone] | 450 | 800 | – | –
2 | CCOc1ccc(C)nc1C(=O)N1C2CCC1C(Nc1nc(C)cc(C)n1)C2 (racemic) [Example 203, (±)-(2-((4,6-dimethylpyrimidin-2-yl)amino)-7-azabicyclo[2.2.1]heptan-7-yl)(3-ethoxy-6-methylpyridin-2-yl)methanone] | – | 490 | > 10000 | –
3 | Cc1ccc(-n2nccn2)c(C(=O)N2C3CCC2C(COc2cccnc2C)C3)n1 (racemic) [Example 54, (±)-(6-methyl-3-(2H-1,2,3-triazol-2-yl)pyridin-2-yl)(2-(((2-methylpyridin-3-yl)oxy)methyl)-7-azabicyclo[2.2.1]heptan-7-yl)methanone] | 3500 | 2200 | – | –
4 | Cc1coc(-c2ccc(C)nc2C(=O)N2C3CCC2C(COc2ccc(F)cn2)C3)n1 (racemic) [Example 177, (±)-(2-(((5-fluoropyridin-2-yl)oxy)methyl)-7-azabicyclo[2.2.1]heptan-7-yl)(6-methyl-3-(4-methyloxazol-2-yl)pyridin-2-yl)methanone] | – | 4000 | 535 | –
5 | COc1c(F)cccc1C(=O)N1C2CCC1C(Nc1ccc(C(F)(F)F)cn1)C2 (racemic) [Example 193, (±)-((3-fluoro-2-methoxyphenyl)(2-(5-(trifluoromethyl)pyridin-2-yl)amino)-7-azabicyclo[2.2.1]heptan-7-yl)methanone] | – | > 10000 | 2900 | –
6 | O=C(c1ccccc1-n1nccn1)N1C2CCC1C(Nc1ccccn1)C2 (racemic) [Example 215, (±)-(2-(2H-1,2,3-triazol-2-yl)phenyl)(2-(pyridin-2-ylamino)-7-azabicyclo[2.2.1]heptan-7-yl)methanone] | – | 9000 | 1700 | –
7 | COc1cccc(-c2c(C)cnn2C)c1C(=O)N1[C@@H]2CC[C@H]1[C@H](Nc1cnc(C(F)(F)F)cn1)C2 [Example 292, (2-(1,4-dimethyl-1H-pyrazol-5-yl)-6-methoxyphenyl)((1S,2R,4R)-2-((5-(trifluoromethyl)pyrazin-2-yl)amino)-7-azabicyclo[2.2.1]heptan-7-yl)methanone] | – | > 10000 | > 10000 | –
8 | Cc1ccc(-c2ncccn2)c(C(=O)N2[C@H]3CC[C@@H]2[C@@H](COc2ccccn2)C3)n1 (single isomer, unassigned) [Example 3B, (6-methyl-3-(pyrimidin-2-yl)pyridin-2-yl)((1R*,2S*,4S*)-2-((pyridin-2-yloxy)methyl)-7-azabicyclo[2.2.1]heptan-7-yl)methanone] | > 10000 | – | – | > 10000
9 | Cc1cc(C)nc(NC2CC3CCC2N3C(=O)c2nc(C)ccc2-c2ncccn2)n1 (racemic) [Example 200, (±)-(2-(((4,6-dimethylpyrimidin-2-yl)amino)-7-azabicyclo[2.2.1]heptan-7-yl)(6-methyl-3-(pyrimidin-2-yl)pyridin-2-yl)methanone] | – | 552 | 1100 | –
10 | CCOc1ccc(C)nc1C(=O)N1C2CCC1C(COc1ccc(F)cn1)C2 (racemic) [Example 118, (±)-(3-ethoxy-6-methylpyridin-2-yl)(2-(((5-fluoropyridin-2-yl)oxy)methyl)-7-azabicyclo[2.2.1]heptan-7-yl)methanone] | – | 2200 | 440 | –
11 | Cc1ccc(NC2CC3CCC2N3C(=O)c2ccccc2-n2nccn2)nc1 (racemic) [Example 214, (±)-(2-(2H-1,2,3-triazol-2-yl)phenyl)(2-(((5-methylpyridin-2-yl)amino)-7-azabicyclo[2.2.1]heptan-7-yl)methanone] | 500 | – | – | 3100
12 | O=C(c1cccc(F)c1I)N1[C@@H]2CC[C@H]1[C@H](Nc1ncc(C(F)(F)F)cn1)C2 [Example 277, (3-fluoro-2-iodophenyl)((1S,2R,4R)-2-((5-(trifluoromethyl)pyrimidin-2-yl)amino)-7-azabicyclo[2.2.1]heptan-7-yl)methanone] | – | 7400 | 457 | –
13 | Cn1c(C(=O)N2[C@@H]3CC[C@H]2[C@H](Nc2cnc(C(F)(F)F)cn2)C3)nc2ccccc21 [Example 251, (1-methyl-1H-benzo[d]imidazol-2-yl)((1S,2R,4R)-2-((5-(trifluoromethyl)pyrazin-2-yl)amino)-7-azabicyclo[2.2.1]heptan-7-yl)methanone] | – | 5300 | 520 | –
14 | O=C(c1cccc(F)c1-c1ccncc1)N1[C@@H]2CC[C@H]1[C@H](Nc1cnc(C(F)(F)F)cn1)C2 [Example 268, (3-fluoro-2-(pyridin-4-yl)phenyl)((1S,2R,4R)-2-((5-(trifluoromethyl)pyrazin-2-yl)amino)-7-azabicyclo[2.2.1]heptan-7-yl)methanone] | – | 3700 | 450 | –
15 | Cc1ccc(-n2nccn2)c(C(=O)N2C3CCC2C(Nc2cnc4ccccc4n2)C3)n1 (racemic) [Example 230, (±)-(6-methyl-3-(2H-1,2,3-triazol-2-yl)pyridin-2-yl)(2-(quinoxalin-2-ylamino)-7-azabicyclo[2.2.1]heptan-7-yl)methanone] | > 10000 | – | – | > 10000
16 | CCOc1ccc(C)nc1C(=O)N1C2CCC1C(Nc1ncc(C(F)(F)F)cn1)C2 (single isomer, unassigned) [Example 224, (±)-(3-ethoxy-6-methylpyridin-2-yl)(2-(5-(trifluoromethyl)pyrimidin-2-yl)amino)-7-azabicyclo[2.2.1]heptan-7-yl)methanone] | – | 7400 | 2500 | –
17 | Cc1cc(-c2ccc(C)nc2C(=O)N2C3CCC2C(COc2ncc(F)cn2)C3)on1 (racemic) [Example 99, (±)-(2-(((5-fluoropyrimidin-2-yl)oxy)methyl)-7-azabicyclo[2.2.1]heptan-7-yl)(6-methyl-3-(3-methylisoxazol-5-yl)pyridin-2-yl)methanone] | 1500 | 2900 | – | –
18 | Cc1ccc(-n2nccn2)c(C(=O)N2C3CCC2C(Nc2ncc(C(F)(F)F)cn2)C3)n1 (racemic) [Example 223, (±)-(6-methyl-3-(2H-1,2,3-triazol-2-yl)pyridin-2-yl)(2-((5-(trifluoromethyl)pyrimidin-2-yl)amino)-7-azabicyclo[2.2.1]heptan-7-yl)methanone] | 550 | 4000 | – | –
19 | Cc1ccc(N2CCOCC2)c(C(=O)N2[C@@H]3CC[C@H]2[C@H](COc2ccccn2)C3)n1 (racemic) [Example 87, (±)-(6-methyl-3-morpholinopyridin-2-yl)((1S,2R,4R)-2-((pyridin-2-yloxy)methyl)-7-azabicyclo[2.2.1]heptan-7-yl)methanone] | – | – | 4200 | > 10000
20 | Cc1ccn2ccnc2c1C(=O)N1C2CCC1C(COc1ccccn1)C2 (racemic) [Example 80, (±)-(7-methylimidazo[1,2-a]pyridin-8-yl)(2-((pyridin-2-yloxy)methyl)-7-azabicyclo[2.2.1]heptan-7-yl)methanone] | – | > 10000 | 1100 | –
21 | O=C(c1ccccc1-n1nccn1)N1C2CCC1C(Nc1ccc(C(F)(F)F)nn1)C2 (racemic) [Example 212, (±)-(2-(2H-1,2,3-triazol-2-yl)phenyl)(2-(6-(trifluoromethyl)pyridazin-3-yl)amino)-7-azabicyclo[2.2.1]heptan-7-yl)methanone] | – | – | 734 | 4900
